# Results from PubChem BioAssay (NCI).
#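 Following 48 hours of exposure in 96-well plates, responses at five concentrations were used to interpolate endpoints linearly. At the GI50, growth is halved. TGI is the concentration that stops growth completely.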
# Tests used:
# Test in all cases: NCI-60 cell line screen, 48 h
# OVCAR-5 ovarian = system: OVCAR-5 ovarian
# A498 renal = system: A498 renal
# SNB-75 CNS = system: SNB-75 CNS
# HT29 colon = system: HT29 colon
# M14 melanoma = system: M14 melanoma
# LOX IMVI melanoma = system: LOX IMVI melanoma
# HL-60(TB) leukemia = system: HL-60(TB) leukemia
# K-562 leukemia = system: K-562 leukemia
# CAKI-1 renal = system: CAKI-1 renal
Structure (SMILES),GI50 (OVCAR-5 ovarian) [µM],TGI (OVCAR-5 ovarian) [µM],GI50 (A498 renal) [µM],TGI (A498 renal) [µM],GI50 (SNB-75 CNS) [µM],TGI (SNB-75 CNS) [µM],GI50 (HT29 colon) [µM],TGI (HT29 colon) [µM],GI50 (M14 melanoma) [µM],TGI (M14 melanoma) [µM],GI50 (LOX IMVI melanoma) [µM],TGI (LOX IMVI melanoma) [µM],GI50 (HL-60(TB) leukemia) [µM],TGI (HL-60(TB) leukemia) [µM],GI50 (K-562 leukemia) [µM],TGI (K-562 leukemia) [µM],GI50 (CAKI-1 renal) [µM],TGI (CAKI-1 renal) [µM]
CC(=O)[O][Ga]([Br])[O]C(C)=O,> 100,> 100,> 100,> 100,> 100,> 100,> 100,> 100,> 100,> 100,> 100,> 100,> 100,> 100,> 100,> 100,> 100,> 100
Cc1cc(C)c(/C=C2\C(=O)Nc3ccc(NC(=O)CCCCCCC(=O)NO)cc32)[nH]1,1.09,> 54.1,1.4,18.2,0.227,> 100,0.859,> 100,0.75,> 100,0.493,12.9,0.506,> 100,0.373,> 100,> 100,> 100
Cc1cc(C)c(NC(=O)c2sc3nc4c(cc3c2N)CN(Cc2ccccc2)CC4)c(C)c1,12.5,> 100,1.31,7.71,2.35,11,2.88,13.2,2.89,31.5,5.01,18.1,–,–,0.903,> 100,2.81,> 100
O=C1NC(=NCCc2cccc(Cl)c2)S/C1=C\c1ccc2ncccc2c1,> 25,> 25,> 25,> 25,> 25,> 25,> 25,> 25,> 25,> 25,–,–,> 25,> 25,1.17,> 25,> 25,> 25
Cc1cc(NS(=O)(=O)c2ccc(Nc3c4ccccc4nc4c(C(=O)N5CCN(CCO)CC5)ccc(Cl)c34)cc2)no1,–,> 100,–,> 100,–,> 100,–,> 100,–,> 100,–,–,–,> 100,–,> 100,–,> 100
Cn1cc(C2=C(c3cccc(Br)c3)C(=O)NC2=O)c2ccccc21,> 25,> 25,4.51,17.9,1.18,> 25,> 15,> 25,17.1,> 25,12,> 25,10.2,> 25,8.65,> 25,9.63,> 25
COc1ncc(-c2ccc3ncnc(Nc4cccc(Cl)c4)c3c2)cc1NS(=O)(=O)C1CC1,–,–,–,–,–,–,–,–,> 100,> 100,–,–,–,–,> 100,> 100,–,–
COc1ccc(-n2c(C)cc(-c3ccccc3)c2C)cc1,2.48,14.6,0.637,9,3.37,> 100,1.89,7.23,2.59,9.14,2.55,11.9,2.88,9.92,1.4,> 100,1.57,7.55
COc1cc(OC)c(/C=C/c2c3ccccc3cc[n+]2C)c(OC)c1,3.04,> 49,1,7.26,1.27,8.01,1.64,10.3,2.62,15.4,2.01,5.9,0.811,7.32,0.863,> 100,18.6,> 100
O=C(CSC1CCc2ccccc21)N/N=C/c1ccccc1O (configuration not stated),8.8,> 100,14.7,44,5.52,> 100,18.3,52.6,3.7,63,2.37,21.5,2.6,8.72,4.59,> 100,1.93,12.7
COc1ccc(O)c(C(=O)c2ccc(C(=O)N[C@H]3CCCNC[C@@H]3NC(=O)c3ccncc3)cc2)c1F,> 25,> 25,0.331,3.26,0.0135,–,16.3,> 25,6.43,> 22.4,7.38,> 25,> 23.5,> 25,7.78,> 25,> 25,> 25
COc1ccc(-c2ccc(-c3ccc(C(=N)N)s3)s2)cc1,0.197,0.43,1.1,2.41,1.39,2.91,0.181,0.375,0.18,0.344,0.191,0.382,0.208,0.423,0.184,0.426,0.345,1.19
